Earlier results in patent US20250367363A1, “METHODS OF LOCAL IRRIGATION FOR TREATING INFECTIONS” (Osteal Therapeutics, Inc., priority 2023, published 2025).
Where two headings read alike, the source gives them in different places. *1 amine or outer side, *2 acyl side, *3 side chain or, on linkers, in order; H or OH if unused. Where a SMILES comes first, the peptide text is derived from it. Bridges are numbered along the chain shown (N, C = ends). [ ]: non-standard residue; d: D form. The star is where a group is joined. hTyr(3S-OH,4S-OH,3'-OSO3H) = N[C@H](C(=O)O)[C@H](O)[C@@H](O)c1ccc(O)c(OS(=O)(=O)O)c1; pTerphenylCO(4''-OnC5H11) = CCCCCOc1ccc(-c2ccc(-c3ccc(C(=O)*)cc3)cc2)cc1; Orn(4R-OH,5R-OH) = O=C([C@H](C[C@@H](O)[C@@H](O)N[*:3])N[*:1])[*:2]; hTyr(3S-OH,4S-OH) = N[C@H](C(=O)O)[C@H](O)[C@@H](O)c1ccc(O)cc1; Pro(3S-OH,4S-Me) = C[C@H]1CN[C@H](C(=O)O)[C@H]1O; X1 = CCCCCOc1ccc(-c2cc(-c3ccc(C(=O)*)cc3)no2)cc1; Gln(3R-OH) = NC(=O)C[C@@H](O)[C@H](N)C(=O)O; Hyp = O=C(O)[C@@H]1C[C@@H](O)CN1

Key:
[1] = systemic

Safe Daily Dose ([1]; Table 2 antibiotics)	Safe IV Concentration (Table 2 antibiotics)	Molecule	Safe IV Concentration (Table 3 antifungal agents)	Safe Daily Dose ([1]; Table 3 antifungal agents)
6 g/day	330 mg/mL	Cc1nnc(SCC2=C(C(=O)O)N3C(=O)[C@@H](NC(=O)Cn4cnnn4)[C@H]3SC2)s1 [Cefazolin]	–	–
6 g/day	40 mg/mL	CO/N=C(\C(=O)N[C@@H]1C(=O)N2C(C(=O)[O-])=C(C[N+]3(C)CCCC3)CS[C@H]12)c1csc(N)n1 [Cefepime]	–	–
1.2 g/day	2 mg/mL	O=C(O)c1cn(C2CC2)c2cc(N3CCNCC3)c(F)cc2c1=O [Ciprofloxacin]	–	–
2.7 g/day	18 mg/mL	CCC[C@@H]1C[C@@H](C(=O)N[C@@H]([C@H]2O[C@H](SC)[C@H](O)[C@@H](O)[C@H]2O)[C@H](C)Cl)N(C)C1 [Clindamycin]	–	–
7 mg/kg/day	0.2 mg/mL	Gentamicin	–	–

The next lines start with the molecule.

Molecule	Safe Daily Dose ([1]; Table 2 antibiotics)	Safe IV Concentration (Table 2 antibiotics)	Safe IV Concentration (Table 3 antifungal agents)	Safe Daily Dose ([1]; Table 3 antifungal agents)
C[C@@H]1[C@H](O)[C@@H](C)/C=C/C=C/C=C/C=C/C=C/C=C/C=C/[C@H](O[C@@H]2O[C@H](C)[C@@H](O)[C@H](N)[C@@H]2O)C[C@@H]2O[C@](O)(C[C@@H](O)C[C@@H](O)[C@H](O)CC[C@@H](O)C[C@@H](O)CC(=O)O[C@H]1C)C[C@H](O)[C@H]2C(=O)O [Amphotericin B]	–	–	0.25 mg/mL	–
CCCCCOc1ccc(-c2ccc(-c3ccc(C(=O)N[C@H]4C[C@@H](O)[C@@H](O)NC(=O)[C@@H]5[C@@H](O)[C@@H](C)CN5C(=O)[C@H]([C@@H](C)O)NC(=O)[C@H]([C@H](O)[C@@H](O)c5ccc(O)cc5)NC(=O)[C@@H]5C[C@@H](O)CN5C(=O)[C@H]([C@@H](C)O)NC4=O)cc3)cc2)cc1 [Anidulafungin] ({pTerphenylCO(4''-OnC5H11)}-[Orn(4R-OH,5R-OH)]T[Hyp][hTyr(3S-OH,4S-OH)]T[Pro(3S-OH,4S-Me)]; lactam 1-C)	–	–	1 mg/mL	200 mg
CC[C@H](C)C[C@H](C)CCCCCCCCC(=O)N[C@H]1C[C@@H](O)[C@@H](NCCN)NC(=O)[C@@H]2[C@@H](O)CCN2C(=O)[C@H]([C@H](O)CCN)NC(=O)[C@H]([C@H](O)[C@@H](O)c2ccc(O)cc2)NC(=O)[C@@H]2C[C@@H](O)CN2C(=O)[C@H]([C@@H](C)O)NC1=O [Caspofungin]	–	–	0.5 mg/mL	70 mg
C[C@@H](c1nc(-c2ccc(C#N)cc2)cs1)[C@](O)(Cn1cncn1)c1cc(F)ccc1F [Isavuconazole]	–	–	1.488 mg/mL	1116 mg
CCCCCOc1ccc(-c2cc(-c3ccc(C(=O)N[C@H]4C[C@@H](O)[C@@H](O)NC(=O)[C@@H]5[C@@H](O)[C@@H](C)CN5C(=O)[C@H]([C@H](O)CC(N)=O)NC(=O)[C@H]([C@H](O)[C@@H](O)c5ccc(O)c(OS(=O)(=O)O)c5)NC(=O)[C@@H]5C[C@@H](O)CN5C(=O)[C@H]([C@@H](C)O)NC4=O)cc3)no2)cc1 [Micafungin] (X1-[Orn(4R-OH,5R-OH)]T[Hyp][hTyr(3S-OH,4S-OH,3'-OSO3H)][Gln(3R-OH)][Pro(3S-OH,4S-Me)]; lactam 1-C)	–	–	1.5 mg/mL	150 mg
CN[C@H](CC(C)C)C(=O)N[C@H]1C(=O)N[C@@H](CC(N)=O)C(=O)N[C@H]2C(=O)N[C@H]3C(=O)N[C@H](C(=O)N[C@H](C(=O)O)c4cc(O)cc(O)c4-c4cc3ccc4O)[C@H](O)c3ccc(c(Cl)c3)Oc3cc2cc(c3O[C@@H]2O[C@H](CO)[C@@H](O)[C@H](O)[C@H]2O[C@H]2C[C@](C)(N)[C@H](O)[C@H](C)O2)Oc2ccc(cc2Cl)[C@H]1O [Vancomycin]	45 to 60 mg/kg/day	5 mg/mL	–	–
